Reference: patent US20100190849A1, “Novel Clerodanes and Methods for Repelling Arthropods” (priority 2006, published 2010)
Marks after values point to notes of the source that are not given here.

What was measured:
[1] = tested on: Aedes aegypti; assay: K & D module mosquito anti-biting (repellent) bioassay; assay type: in vivo
Procedure: Insects: Ae. aegypti(L.) (red eye Liverpool strain) and An. stephensi Liston used in the study were from colonies maintained at the Walter Reed Army Institute of Research, Silver Spring, Md. […] Adults were maintained in a photoperiod of 12:12 (L:D) h at 27° C. and 80% RH with cotton pads moistened with 10% aqueous sucrose solution. Mated females were 5-15 d old when they were used in bioassays. Ae. aegypti females had access only to water 24 h and neither food nor water for another 24 h before testing. An. stephensi females were provided with water alone 24 h before testing.
Routinely, a six-celled K & D module containing five mosquitoes/cell was positioned over cloth treatments covering the six blood-membrane wells, and trap doors of the K&D modules were opened to expose the treatments to the sets of mosquitoes. After a 3 minute exposure, the number of mosquitoes biting through cloth treatments in each cell was recorded and mosquitoes were prodded back into the cells. […] Experiments were replicated 12, 18, 32, or 56 times. Thus, 60, 90, 160. or 280 mosquitoes were tested against each treatment depending on the experiment, and the proportion of mosquitoes not biting for each treatment was calculated. For each experiment, conducted in different time periods, logistic regression was used to make two sets of one degree-of-freedom contrasts (t-tests): treatments vs. control and treatments vs. SS220 for anti-biting activity within each experiment. The level of significance was set at P=0.05. In all, we conducted 8 biological experiments, and all experiments used Ae. aegypti as the test mosquito with exception of Experiment 7 which used An. stephensi.
Each experiment was replicated 18 times.
Experiments 3, 4, and 5: In each of these experiments, chromatographic fractions of essential oil at their respective percentage compositions of 100 μg essential oil/cm^2 cloth, 100 μg unfractionated essential oil/cm^2 cloth, 25 nmol SS-220/cm^2 cloth and control were compared for mosquito anti-biting activity. Each experiment was replicated 18 times.
(§1) Experiments 6 and 7: These experiments compared the anti-biting activities of SS-220, and plant-isolated callicarpenal, humulene epoxide II, intermedeol and spathulenol at 25 nmol compound/cm^2 cloth versus control against Ae. aegypti and An. stephensi, respectively. Experiment 6 was replicated 32 times and 7 had 56 replicates
The percentage composition of the mixture was a normalized percentage of active components in C. japonica essential oil based upon GC-MS analysis total ion Area % analysis based on largest peaks. Other treatments in the experiment were SS220, callicarpenal, intermedeol, and spathulenol each at 25 nmol/cm^2 cloth versus control.

[2] = tested on: Aedes aegypti; assay: Total mosquito toxic knockdown after K & D module exposure (Experiment 8); assay type: in vivo; conditions: Exp. 8, 25 nmol/cm^2 cloth; for Total Knock down 6 min: dead mosquitoes 6 min post-treatment exposure; for Total knock down 1 hr: dead mosquitoes 1 hr post-treatment exposure; for Total knock down 24 hr: dead mosquitoes 24 hr post-treatment exposure
Excerpt: (§2) Plant extracts, fractions, or isolated pure plant derived compounds in 95% ethanol solution were each randomly applied to six-4×5 cm areas of organdy cloth and positioned over the membrane-covered blood. A replicate consisted of six treatments: four test chemicals or extract fractions, 95% ethanol treated cloth as control and unfractionated plant extract or a standard repellent compound, (1S, 2′S)-2-methylpiperidinyl-3-cyclohexen-1-carboxamide (SS220) at 25 nmol/cm^2 cloth. The 25 nmol SS220/cm^2 cloth dose was used as a standard, because it was known from human volunteer and in vitro assays to consistently suppress mosquito biting by 80% or more compared to controls in replicated assays (Klun, J. A., et al., Journal of the American Mosquito Control Association, 21: 64-70 (2005)). […] Routinely, a six-celled K & D module containing five mosquitoes/cell was positioned over cloth treatments covering the six blood-membrane wells, and trap doors of the K&D modules were opened to expose the treatments to the sets of mosquitoes. After a 3 minute exposure, the number of mosquitoes biting through cloth treatments in each cell was recorded and mosquitoes were prodded back into the cells. In Experiment 8, we retained all mosquitoes in their respective K&D module cells, each fitted with a water-moist piece of cotton, and observed the mosquitoes for total mosquito toxic knockdown at 6 min, 1 hr, and 24 hr post-treatment exposure. Experiments were replicated 12, 18, 32, or 56 times. Thus, 60, 90, 160. or 280 mosquitoes were tested against each treatment depending on the experiment, and the proportion of mosquitoes not biting for each treatment was calculated. For each experiment, conducted in different time periods, logistic regression was used to make two sets of one degree-of-freedom contrasts (t-tests): treatments vs. control and treatments vs. SS220 for anti-biting activity within each experiment. The level of significance was set at P=0.05. In all, we conducted 8 biological experiments, and all experiments used Ae. aegypti as the test mosquito with exception of Experiment 7 which used An. stephensi.
Experiment 8: This experiment (12 replicates) compared the antibiting activities of a mixture (25 nmol/cm^2 cloth) of 11.5% callicarpenal, 47.1% intermedeol, and 41.4% spathulenol. The percentage composition of the mixture was a normalized percentage of active components in C. japonica essential oil based upon GC-MS analysis total ion Area % analysis based on largest peaks. Other treatments in the experiment were SS220, callicarpenal, intermedeol, and spathulenol each at 25 nmol/cm^2 cloth versus control. In addition to measurement of anti-biting activity, the number of dead mosquitoes observed at three time intervals were recorded for the six treatments.

[3] = tested on: Anopheles stephensi; assay: K & D module mosquito anti-biting (repellent) bioassay; assay type: in vivo; conditions: 25 nmol compound/cm^2 cloth; for Proportion Not Biting: Exp. 7, 56 replicates; for repellent activity (in words): Experiment 7
Excerpt: Insects: Ae. aegypti(L.) (red eye Liverpool strain) and An. stephensi Liston used in the study were from colonies maintained at the Walter Reed Army Institute of Research, Silver Spring, Md. The insects were reared by feeding larvae ground tropical fish flakes (Tetramin Tropical Fish Flakes, Tetra Sales, Blacksburg, Va., www.tetra-fish.com)(Gerberg, E. j., et al., Manual for mosquito rearing and experimental techniques. Amer. Mosq. Control Assoc. Bull. No. 5 (revised), 1994, AMCA. inc., Lake Charles, La.). Adults were maintained in a photoperiod of 12:12 (L:D) h at 27° C. and 80% RH with cotton pads moistened with 10% aqueous sucrose solution. Mated females were 5-15 d old when they were used in bioassays. Ae. aegypti females had access only to water 24 h and neither food nor water for another 24 h before testing. An. stephensi females were provided with water alone 24 h before testing.
Mosquito Bioassay Methods: Experiment were conducted by using, a six-celled in vitro Klun & Debboun (K & D) module bioassay system developed by klun et al. (Klum J. A., et al., Journal of the American Mosquito Control Association. 21: 64-70 (2005)) for quantitative, evaluation of mosquito-repellent (anti-biting) properties of candidate repellent compounds for human use.
as §2, §1

[4] = tested on: Aedes aegypti; conditions: in vivo; cited from earlier work
[5] = tested on: An. stephensi; conditions: in vivo; cited from earlier work
[6] = tested on: mosquito; conditions: 25 nmol SS220/cm^2 cloth; replicated assays; cited from earlier work
[7] = Table 8, Example 3, synthetic compounds, dose not given
[8] = Exp. 6, 25 nmol compound/cm^2 cloth, 32 replicates
[9] = Exp. 8, 25 nmol/cm^2 cloth, 12 replicates
[10] = Experiment 6, 25 nmol compound/cm^2 cloth
[11] = Table 7, Example 2, synthetic compounds, dose not given

Compound: C[C@@H]1CC[C@]2(C)[C@H](CC[C@@H]3O[C@@]32C)[C@@]1(C)CC=O [β-epoxycallicarpenal]
- biting deterrent efficacy (in words) ([1]; Example 3, Table 8): equivalent to callicarpenal
- Proportion Not Biting [1, 7]: 0.70^b

Compound: α-epoxycallicarpenal
- biting deterrent efficacy (in words) ([1]; Example 3, Table 8): equivalent to callicarpenal
- Proportion Not Biting [1, 7]: 0.68^b

Compound: C=C1CC[C@@H]2[C@H]([C@H]3[C@H]1CC[C@]3(C)O)C2(C)C [spathulenol, (1R,4S,5R,6R,7R)-aromadendr-10(14)-en-4-ol]
- Total Knock down 6 min [2]: 1
- Total knock down 1 hr [2]: 2
- Total knock down 24 hr [2]: 0
- Proportion Not Biting [3]: 0.75^c
- repellent activity (in words) [3]: as effective as SS220
- Proportion Not Biting [1, 8]: 0.73^c
- Proportion Not Biting [1, 9]: 0.48^b
- repellent activity (in words) [1, 10]: equally active
- repellent activity (in words) ([1]; Experiment 8, 25 nmol/cm^2 cloth): significantly different from the control

Compound: CC1=CCC[C@@H]2[C@@](C)(CCO)[C@H](C)CC[C@@]12C [13,14,15,16-tetranorclerod-3-en-12-ol]
- biting deterrent efficacy (in words) ([1]; Example 2, Table 7): equivalent to both callicarpenal and picaridin
- Proportion Not Biting [1, 11]: 0.68^b

Compound: CCC(C)OC(=O)N1CCCCC1CCO (stereo not shown) [picaridin, 2-(2-hydroxyethyl)-1piperidinecarboxylic acid 1-methylpropyl ester, reference compound]
- Proportion Not Biting [1, 11]: 0.62^b

Compound: C[C@H]1CCCCN1C(=O)[C@@H]1CC=CCC1 [SS220, (1S, 2′S)-2-methylpiperidinyl-3-cyclohexen-1-carboxamide, reference compound]
- repellent activity compared with bench mark repellents (in words) [4]: more effective than Bayrepel
- repellent activity compared with bench mark repellents (in words) [5]: equivalent to bench mark repellent compounds Deet and Bayrepel
- Total Knock down 6 min [2]: 0
- Total knock down 1 hr [2]: 1
- Total knock down 24 hr [2]: 2
- suppression of mosquito biting compared to controls [6]: ≥ 80%
- Proportion Not Biting [3]: 0.78^c
- Proportion Not Biting ([1]; Exp. 1, 25 nmole/cm^2 cloth, 3 minute exposure): 0.81^c
- Proportion Not Biting ([1]; Exp. 2, 25 nmole/cm^2 cloth): 0.90^c
- Proportion Not Biting ([1]; Exp. 3, 25 nmole/cm^2): 1.00^c
- Proportion Not Biting ([1]; Exp. 4, 25 nmole/cm^2): 0.92^c
- Proportion Not Biting ([1]; Exp. 5, 25 nmole/cm^2): 0.95^c
- Proportion Not Biting [1, 8]: 0.80^c
- Proportion Not Biting [1, 9]: 0.67^c

Compound: C/C1=C\CC(C)(C)/C=C/C[C@@]2(C)O[C@@H]2CC1 [humulene epoxide II]
- Proportion Not Biting [3]: 0.58^a
- repellent activity (in words) [3]: not different from the control
- Proportion Not Biting [1, 8]: 0.48^a
- repellent activity (in words) [1, 10]: no repellent activity
